Measurements: patent US10520488B2, “Method and measuring device for determination of the growth rate of biofilm” (Helmholtz-Zentrum fuer Infektionsforschung GmbH, priority 2014, dated 2019)

What was measured:
Assay type in all cases: cell-based, Pseudomonas aeruginosa
PA14 biofilms [1] = assay: Impedance analysis (xCELLigence cell index) of PA14 biofilm growth rate / biofilm formation
Experimental: The biomass Pseudomonas aeruginosa had been measured as an exemplary biomass. Eventually also other strains can be analyzed. The 96 E-Plate had been used for a measuring time of 43 hours. The fluid culture medium LB had been introduced into the receptacles together with wild type (WT) PA14, ΔpelA deletion mutant or ΔpqsA, respectively.
A significant linear reduction of the negative cell index occurs after about 35 hours and more preferably in the time frame of the 37 hours to 42 hours. Within this time frame of 37 hours to 42 hours, the directional cell index RK=(cell index[t2]−cell index[t1])/(t2−t1) is decreasing. Thus, for such a short time frame, the value of the cell index change provides the directional cell index RK, which corresponds to the linear relation between the capacitance and the reactance having the general form of a straight line. Optionally, and in particular in case of evaluating longer time frames, the growth rate of biofilm can be calculated as function of the natural logarithm of the cell index, e.g. by the formula RK=ln(cell index[t2]−cell index[t1])/(t2−t1).
The impedance method has also been used to study the effect of antibiotics on biofilm formation of P. aeruginosa PA14. The results of the impact of ciprofloxacin (A), tobramycin (B), and meropenem (C) on biofilm formation of PA14 are shown in FIGS. 8 to 10. As examples, the antibiotics ciprofloxacin (FIGS. 8a)-c)), tobramycin (FIGS. 9a)-c)) and meropenem (FIGS. 10a)-c)) have been tested. All three antibiotics changed the impedance curves in a concentration-dependent manner, indicating effects on biofilm formation.
The effect on impedance was quantified by three parameters at varying antibiotic concentrations:
The first parameter is the time of onset of a linear decrease of the cell index, (FIGS. 8a), 9a) and 10a)).
The second parameter is the duration of a linear decrease of the cell index. This duration was determined by a linear trendline that was fitted to the data with an r^2 value of 0.97 or higher. In the graphs of FIGS. 8a), 9a) and 10a), the black vertical bars represent the time period over which the biofilm formation rate was measured to be steady, based on a straight line assigned with an r^2 of at least 0.97 (n=3 or 4).
The third parameter was the cell index slope during that time period (FIGS. 8b), 9b) and 10b)). These graphs show the concentration dependency of the biofilm formation expressed in the slope/h of the cell index (n=3 or 4).

PA14 = assay: Planktonic growth curves of PA14 by OD600 (control experiment)
Excerpt: OD600 indicates the absorbance, or optical density, of a sample measured at a wavelength of 600 nm and indicates the concentration of cells in a liquid.

PA14 biofilms [2] = assay: Crystal violet analysis of PA14 biofilms, absorption at 620 nm; conditions: added to wild type WT PA14, LB medium, 96-Well-Plate, after 43 hours, compared to WT alone
Experimental: FIG. 5—Diagram of PA 14 biofilms determined after 43 hours with crystal violet by monitoring absorption at 620 nm;
FIG. 5 is a diagram of various types of PA14 biofilms measured by use of the 96-Well-Plate after 43 hours by use of the fluid culture medium LB with crystal violet analysis by monitoring absorption at 620 nm.

For `O=C(O)c1cn(C2CC2)c2cc(N3CCNCC3)c(F)cc2c1=O` [ciprofloxacin], the “impedance curve reflecting biofilm formation” value (PA14 biofilms [1]; 0.13 μg/mL) was “clearly changed the impedance curve”, the steady biofilm formation (PA14 biofilms [1]; 0.25 μg/mL) was “not observed anymore” and the “cell index slope (biofilm formation)” value (PA14 biofilms [1]; at increasing concentrations) was “shallower decline”. For the same compound, the planktonic growth (PA14; 0.13 μg/mL) was “not impaired” and the planktonic growth (PA14; 0.25 μg/mL) was “still possible”.

For `NC[C@H]1O[C@H](O[C@H]2[C@H](O)[C@@H](O[C@H]3O[C@H](CO)[C@@H](O)[C@H](N)[C@H]3O)[C@H](N)C[C@@H]2N)[C@H](N)C[C@@H]1O` [tobramycin], the “cell index slope (biofilm formation)” value (PA14 biofilms [1]; at increasing concentrations) was “shallower decline”.

`C[C@@H](O)[C@H]1C(=O)N2C(C(=O)O)=C(S[C@@H]3CN[C@H](C(=O)N(C)C)C3)[C@H](C)[C@H]12` [meropenem] was tested, and the “induction of biofilm formation (cell index slope)” value (PA14 biofilms [1]; 0.5 μg/ml) was “this effect vanished” and the “cell index slope (biofilm formation)” value (PA14 biofilms [1]; concentrations between 0.063 and 0.25 μg/ml) was “induced biofilm formation”.

With `N=C(N)NCCC[C@H](N)C(=O)O` [L-Arg, arginine] the “directional cell index RK” value (PA14 biofilms [1]; 0.4% or 0.8% L-Arg added to wild type WT, evaluation time 37 to 42 hours) was “about −0.004 /h”, the “reduction of the biofilm growth rate” value (PA14 biofilms [1]; 0.4% or 0.8% L-Arg, PA14 WT, LB, evaluation time 37 to 42 hours) was “about ½” and the “growth of biofilm (crystal violet)” value (PA14 biofilms [2]) was “inhibits the growth of biofilm”.
